Measurements as given in PubChem BioAssay AID2060509 (Molecular Pharmacology Branch, DTP, NCI, 2025).

System: 485176-168-R4-J1-PDC spheroids with HUVEC/MSC, viability
Test: Anticancer human tumor 485176-168-R4-J1-PDC patient-derived pancreatic adenocarcinoma cell line growth inhibition [GQUAD]
Details: for IC50: curve of first compound; for viability, T/C: stronger effect = lower value
From the text: DNA G-quadruplex Stabilizer Agents in Combinations in Complex Spheroids
A high-throughput screen of multi-cell type tumor spheroids was designed to identify active combinations of DNA G-quadruplex stabilizer agents and targeted small molecules. Complex spheroids include a stromal component modeled by human endothelial cells (HUVEC) and fibroblasts modeled by human mesenchymal stem cells (MSCs). The concentration ranges selected for each drug and investigational agent were based upon clinically achievable concentrations if the clinical Cmax of the agent was known.
Compounds. The drugs and investigational agents: pidnarulex (CX-5461; NSC782164), APTO-253 (NSC789042), BRACO-19 (NSC847499), peposertib (NSC802822), ceralasertib (NSC780249), elimusertib (NSC800525), camonsertib (NSC841442), AZD-1390 (NSC803789), olaparib (NSC753686), talazoparib (NSC767125), ART-558 (NSC835418), sotorasib (NSC818433), MRTX-1133 (NSC836407), SN-38 (NSC673596), topotecan (NSC609699), etoposide (NSC141540), doxorubicin (NSC123127), gemcitabine (NSC613327), 5-fluorouracil (NSC19893), paclitaxel (NSC125973), vemurafenib (NSC761431), panobinostat (NSC761190), R-306465 (JNJ-16241199; NSC773264), adavosertib (NSC754352), TP-3654 (NSC805149), carboplatin (NSC241240), KSQ-4279 (NSC840948), and staurosporine (NSC755774) were obtained from the National Cancer Institute (NCI) Developmental Therapeutics Program Chemical Repository (34). The FDA-approved anticancer drug set is available from the NCI Developmental Therapeutics Program. […] The stock solutions were prepared in dimethyl sulfoxide (DMSO, Sigma-Aldrich, St. Louis, MO, cat. D2650) at 800-fold the tested concentration and stored at -70 degrees C prior to their use. All drugs and investigational agents were tested over a range starting from a high concentration at or near the clinical Cmax and decreasing in half-log increments. If the clinical Cmax for an agent had not been determined, the highest concentration tested was 10 microM.
2.3 Cell Culture. All cells were maintained in an incubator at 37 degrees C and 5% CO2 with 95% humidity. The PDC lines were cultured according to standard operating procedures established by the NCI PDMR. All PDCs were thawed and cultured in Matrigel-coated flasks prepared with a working solution of 1X Ham's F-12 nutrient mix, without supplementation (Invitrogen, cat. 11765054), 100 U/mL penicillin-streptomycin (Invitrogen, cat. 15140122), and 2.5% Matrigel (Corning Inc., cat. 354248) for the first three passages. The 857933-349-R-J2-PDC line was cultured in 6C/Colon 1B media, which includes advanced DMEM/F-12 (Thermo Fisher Scientific, cat. 12634028), 10 mM HEPES (Thermo Fisher Scientific, cat. 15630080), 1X GlutaMAX supplement (Thermo Fisher Scientific, cat. 35050061), 0.1 mg/mL primocin (InvivoGen, cat. ant-pm-2), 10% defined fetal bovine serum, heat inactivated (HyClone Laboratories Inc., cat. SH30070.03HI), 50% L-WRN conditioned media (ATCC, cat. CRL-3276), 1.25 mM N-Acetyl-L-cysteine (Sigma-Aldrich, cat. A9165), 10 mM nicotinamide (Sigma-Aldrich, cat. N0636), 1X B-27 supplement (Thermo Fisher Scientific, cat. 17504044), 1X N-2 supplement (Thermo Fisher Scientific, cat. 17502048), 10 microM Y-27632 dihydrochloride (Tocris Bioscience, cat. 1254), and 50 ng/mL human EGF recombinant protein (Thermo Fisher Scientific, cat. PHG0311). The 485176-168-R4-J1-PDC line was cultured in Panc media, which includes all 6C/Colon 1B media components plus 100 ng/mL human FGF-10 (Thermo Fisher Scientific, cat. 100-26), 500 nM SB-431542 (Selleckchem, cat. S1067), and gastrin (Tocris, cat. 3006).
[…]

[1] = second compound 0.0316 µM, first compound 0.0316 µM
[2] = second compound 0.0316 µM, first compound 0.316 µM
[3] = second compound 0.1 µM, first compound 0.0316 µM
[4] = second compound 0.1 µM, first compound 0.316 µM
[5] = second compound 0.316 µM, first compound 0.0316 µM
[6] = second compound 0.316 µM, first compound 0.316 µM
[7] = second compound 1 µM, first compound 0.0316 µM
[8] = second compound 1 µM, first compound 0.316 µM
[9] = second compound 3.16 µM, first compound 0.0316 µM
[10] = second compound 3.16 µM, first compound 0.316 µM
[11] = second compound 10 µM, first compound 0.0316 µM
[12] = second compound 10 µM, first compound 0.316 µM
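Also: spheroids exposed to compounds for seven days before readout.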
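For viability, T/C in this document: percent viability relative to DMSO vehicle control wells as 100%.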

## CCc1c2c(nc3ccc(O)cc13)-c1cc3c(c(=O)n1C2)COC(=O)[C@]3(O)CC + Cc1cnc(CNC(=O)c2c(=O)c3ccc(N4CCCN(C)CC4)nc3n3c2sc2ccccc23)cn1
Second compound 0.0316 µM
  IC50: 3.5 nM
Second compound 0.1 µM
  IC50: 1.5 nM
Second compound 0.316 µM
  IC50: 1.67 nM
Second compound 1 µM
  IC50: < 0.999 nM
Second compound 3.16 µM
  IC50: < 0.999 nM
Second compound 10 µM
  IC50: < 0.999 nM
Second compound 0.0316 µM, first compound 0.000999 µM
  viability, T/C: 79.5%
Second compound 0.0316 µM, first compound 0.00316 µM
  viability, T/C: 47.6%
Second compound 0.0316 µM, first compound 0.00999 µM
  viability, T/C: 36%
[1]
  viability, T/C: 19.6%
Second compound 0.0316 µM, first compound 0.0999 µM
  viability, T/C: 12.6%
[2]
  viability, T/C: 4.96%
Second compound 0.1 µM, first compound 0.000999 µM
  viability, T/C: 54.7%
Second compound 0.1 µM, first compound 0.00316 µM
  viability, T/C: 42.7%
Second compound 0.1 µM, first compound 0.00999 µM
  viability, T/C: 26.6%
[3]
  viability, T/C: 21.9%
Second compound 0.1 µM, first compound 0.0999 µM
  viability, T/C: 11.4%
[4]
  viability, T/C: 4.78%
Second compound 0.316 µM, first compound 0.000999 µM
  viability, T/C: 53%
Second compound 0.316 µM, first compound 0.00316 µM
  viability, T/C: 47%
Second compound 0.316 µM, first compound 0.00999 µM
  viability, T/C: 30.9%
[5]
  viability, T/C: 19.5%
Second compound 0.316 µM, first compound 0.0999 µM
  viability, T/C: 10.7%
[6]
  viability, T/C: 5.12%
Second compound 1 µM, first compound 0.000999 µM
  viability, T/C: 40.2%
Second compound 1 µM, first compound 0.00316 µM
  viability, T/C: 38.9%
Second compound 1 µM, first compound 0.00999 µM
  viability, T/C: 33.2%
[7]
  viability, T/C: 20%
Second compound 1 µM, first compound 0.0999 µM
  viability, T/C: 11.9%
[8]
  viability, T/C: 5.51%
Second compound 3.16 µM, first compound 0.000999 µM
  viability, T/C: 42.6%
Second compound 3.16 µM, first compound 0.00316 µM
  viability, T/C: 35%
Second compound 3.16 µM, first compound 0.00999 µM
  viability, T/C: 27.3%
[9]
  viability, T/C: 22.1%
Second compound 3.16 µM, first compound 0.0999 µM
  viability, T/C: 11.1%
[10]
  viability, T/C: 6.82%
Second compound 10 µM, first compound 0.000999 µM
  viability, T/C: 33.8%
Second compound 10 µM, first compound 0.00316 µM
  viability, T/C: 29.4%
Second compound 10 µM, first compound 0.00999 µM
  viability, T/C: 25.1%
[11]
  viability, T/C: 19.9%
Second compound 10 µM, first compound 0.0999 µM
  viability, T/C: 5.56%
[12]
  viability, T/C: 0.25%

## C=CCn1c(=O)c2cnc(Nc3ccc(N4CCN(C)CC4)cc3)nc2n1-c1cccc(C(C)(C)O)n1 + Cc1[nH]c2ccc(F)cc2c1-c1nc2c3cccnc3c3ncccc3c2[nH]1
Second compound 0.0316 µM
  IC50: 401 nM
Second compound 0.1 µM
  IC50: 386 nM
Second compound 0.316 µM
  IC50: 469 nM
Second compound 1 µM
  IC50: 468 nM
Second compound 3.16 µM
  IC50: 360 nM
Second compound 10 µM
  IC50: 309 nM
[1]
  viability, T/C: 103%
Second compound 0.0316 µM, first compound 0.1 µM
  viability, T/C: 96.9%
[2]
  viability, T/C: 55.1%
Second compound 0.0316 µM, first compound 1 µM
  viability, T/C: 22.6%
Second compound 0.0316 µM, first compound 3.16 µM
  viability, T/C: 7.84%
Second compound 0.0316 µM, first compound 10 µM
  viability, T/C: 3.33%
[3]
  viability, T/C: 105%
Second compound 0.1 µM, first compound 0.1 µM
  viability, T/C: 82.8%
[4]
  viability, T/C: 60.2%
Second compound 0.1 µM, first compound 1 µM
  viability, T/C: 20%
Second compound 0.1 µM, first compound 3.16 µM
  viability, T/C: 7.9%
Second compound 0.1 µM, first compound 10 µM
  viability, T/C: 4.23%
[5]
  viability, T/C: 98.2%
Second compound 0.316 µM, first compound 0.1 µM
  viability, T/C: 81.1%
[6]
  viability, T/C: 65.8%
Second compound 0.316 µM, first compound 1 µM
  viability, T/C: 25%
Second compound 0.316 µM, first compound 3.16 µM
  viability, T/C: 6.26%
Second compound 0.316 µM, first compound 10 µM
  viability, T/C: 4.73%
[7]
  viability, T/C: 115%
Second compound 1 µM, first compound 0.1 µM
  viability, T/C: 94.4%
[8]
  viability, T/C: 66.7%
Second compound 1 µM, first compound 1 µM
  viability, T/C: 22%
Second compound 1 µM, first compound 3.16 µM
  viability, T/C: 7.76%
Second compound 1 µM, first compound 10 µM
  viability, T/C: 4.28%
[9]
  viability, T/C: 114%
Second compound 3.16 µM, first compound 0.1 µM
  viability, T/C: 75.1%
[10]
  viability, T/C: 63.7%
Second compound 3.16 µM, first compound 1 µM
  viability, T/C: 23.2%
Second compound 3.16 µM, first compound 3.16 µM
  viability, T/C: 6.68%
Second compound 3.16 µM, first compound 10 µM
  viability, T/C: 4.03%
[11]
  viability, T/C: 101%
Second compound 10 µM, first compound 0.1 µM
  viability, T/C: 82.4%
[12]
  viability, T/C: 50.1%
Second compound 10 µM, first compound 1 µM
  viability, T/C: 18.9%
Second compound 10 µM, first compound 3.16 µM
  viability, T/C: 5.54%
Second compound 10 µM, first compound 10 µM
  viability, T/C: 3.76%
